Source: PubChem BioAssay (NCI)
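Following 48 hours of exposure in 96-well plates, responses at five concentrations were used to interpolate endpoints linearly. Here, GI50 denotes the concentration required for 50% inhibition of growth. The concentration for full growth arrest is given as TGI.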

Legend:
Test in all cases: inhibition of tumour cell growth, NCI panel, 48 h
IGROV1 ovarian = tested on: IGROV1 ovarian
MALME-3M melanoma = tested on: MALME-3M melanoma
SNB-19 CNS = tested on: SNB-19 CNS
SNB-75 CNS = tested on: SNB-75 CNS
MDA-MB-231 breast = tested on: MDA-MB-231 breast
SK-OV-3 ovarian = tested on: SK-OV-3 ovarian
K-562 leukemia = tested on: K-562 leukemia
SK-MEL-5 melanoma = tested on: SK-MEL-5 melanoma
A498 renal = tested on: A498 renal
UACC-257 melanoma = tested on: UACC-257 melanoma

Row | SMILES | TGI (IGROV1 ovarian) [µM] | TGI (MALME-3M melanoma) [µM] | TGI (SNB-19 CNS) [µM] | TGI (SNB-75 CNS) [µM] | TGI (MDA-MB-231 breast) [µM] | TGI (SK-OV-3 ovarian) [µM] | TGI (K-562 leukemia) [µM] | TGI (SK-MEL-5 melanoma) [µM] | TGI (A498 renal) [µM] | TGI (UACC-257 melanoma) [µM] | GI50 (IGROV1 ovarian) [µM] | GI50 (MALME-3M melanoma) [µM] | GI50 (SNB-19 CNS) [µM] | GI50 (SNB-75 CNS) [µM] | GI50 (MDA-MB-231 breast) [µM] | GI50 (SK-OV-3 ovarian) [µM] | GI50 (K-562 leukemia) [µM] | GI50 (SK-MEL-5 melanoma) [µM] | GI50 (A498 renal) [µM] | GI50 (UACC-257 melanoma) [µM]
1 | S=c1[nH]nc(Cc2ccccc2)c(=S)[nH]1 | > 100 | > 100 | > 100 | 89.1 | > 100 | > 100 | > 100 | > 82.2 | > 81.8 | > 100 |  |  |  |  |  |  |  |  |  | 
2 | O=[N+]([O-])c1ccc(C2CC(c3ccccc3Cl)=Nc3ccccc3S2=O)cc1 (stereo not given) | 8.57 | 32 | 12.4 | 21.4 | 5.29 | 52.9 | 4.57 | 14.2 | 6.03 | 48.3 |  |  |  |  |  |  |  |  |  | 
3 | CCOc1cc(Br)c(C(C)NC(=O)c2cccc(OC)c2)cc1OCC (stereo not given) | > 100 | > 89.3 | > 100 | 51.7 | > 100 | > 100 | > 100 | 34.9 | 25.5 | > 100 | 22.3 | 9.9 | 11.8 | 6.04 | 8.59 | 23.1 | 3.6 | 8.06 | 0.866 | 22.5
4 | O=C1C2=C(c3ccccc31)C(c1ccccc1)N1C(=O)CSC1=N2 (stereo not given) | > 100 | > 100 | > 100 | 67.7 | > 100 | > 100 | > 100 | > 100 | > 100 | > 100 |  |  |  |  |  |  |  |  |  | 
5 | COc1cc(OC)c2nccc(NCCCN(C)C)c2c1[N+](=O)[O-] | > 100 | > 100 | > 100 | > 100 | > 100 | > 100 | > 100 | > 100 | > 100 | > 100 |  |  |  |  |  |  |  |  |  | 
6 | Cc1cc(Nc2nc(-c3cccnc3)nc3ccccc23)n[nH]1 | > 40.6 | > 100 | > 100 | 2.18 | > 100 | > 100 | > 100 | > 63.6 | 0.985 | > 100 | 1.2 | > 100 | 5.98 | 0.3 | 17.3 | 0.956 | 3.07 | 4 | 0.183 | 42.2
7 | CC(C)(C)c1ccc(OC(=O)Nc2ccc(O)c(C(=O)O)c2)cc1 | > 100 | > 100 | > 100 | > 100 | > 100 | > 100 | > 100 | > 100 | > 100 | > 100 |  |  |  |  |  |  |  |  |  | 
8 | COc1cccc(CSCC(=O)O)c1 | > 100 | > 100 | > 100 | > 100 | > 100 | > 100 | > 100 | > 100 | > 100 | > 100 |  |  |  |  |  |  |  |  |  | 
